# Laboratory results: patent US12162890B2 (Novartis AG, priority 2015, dated 2024)
# Target: HEK293 cells with stable expression of the GRIN1 gene and tetracycline-inducible expression of the GRIN2B gene (NMDA receptor, NR2B) (Homo sapiens, UniProt Q13224)
# Assay: Fluo-8 Ca2+ flux assay: reversal of Ro 25-6981-mediated suppression of the Ca2+ response to co-agonist (glutamate/glycine); note: test concentration or dose not given here
# Format: cell-based
# Settings: reversal of the Ro 25-6981 suppression of the Ca2+ response to co-agonist (glutamate/glycine)
# Sequence of HEK293 cells with stable expression of the GRIN1 gene and tetracycline-inducible expression of the GRIN2B gene (NMDA receptor, NR2B) (Q13224 27-1484, other chains not shown): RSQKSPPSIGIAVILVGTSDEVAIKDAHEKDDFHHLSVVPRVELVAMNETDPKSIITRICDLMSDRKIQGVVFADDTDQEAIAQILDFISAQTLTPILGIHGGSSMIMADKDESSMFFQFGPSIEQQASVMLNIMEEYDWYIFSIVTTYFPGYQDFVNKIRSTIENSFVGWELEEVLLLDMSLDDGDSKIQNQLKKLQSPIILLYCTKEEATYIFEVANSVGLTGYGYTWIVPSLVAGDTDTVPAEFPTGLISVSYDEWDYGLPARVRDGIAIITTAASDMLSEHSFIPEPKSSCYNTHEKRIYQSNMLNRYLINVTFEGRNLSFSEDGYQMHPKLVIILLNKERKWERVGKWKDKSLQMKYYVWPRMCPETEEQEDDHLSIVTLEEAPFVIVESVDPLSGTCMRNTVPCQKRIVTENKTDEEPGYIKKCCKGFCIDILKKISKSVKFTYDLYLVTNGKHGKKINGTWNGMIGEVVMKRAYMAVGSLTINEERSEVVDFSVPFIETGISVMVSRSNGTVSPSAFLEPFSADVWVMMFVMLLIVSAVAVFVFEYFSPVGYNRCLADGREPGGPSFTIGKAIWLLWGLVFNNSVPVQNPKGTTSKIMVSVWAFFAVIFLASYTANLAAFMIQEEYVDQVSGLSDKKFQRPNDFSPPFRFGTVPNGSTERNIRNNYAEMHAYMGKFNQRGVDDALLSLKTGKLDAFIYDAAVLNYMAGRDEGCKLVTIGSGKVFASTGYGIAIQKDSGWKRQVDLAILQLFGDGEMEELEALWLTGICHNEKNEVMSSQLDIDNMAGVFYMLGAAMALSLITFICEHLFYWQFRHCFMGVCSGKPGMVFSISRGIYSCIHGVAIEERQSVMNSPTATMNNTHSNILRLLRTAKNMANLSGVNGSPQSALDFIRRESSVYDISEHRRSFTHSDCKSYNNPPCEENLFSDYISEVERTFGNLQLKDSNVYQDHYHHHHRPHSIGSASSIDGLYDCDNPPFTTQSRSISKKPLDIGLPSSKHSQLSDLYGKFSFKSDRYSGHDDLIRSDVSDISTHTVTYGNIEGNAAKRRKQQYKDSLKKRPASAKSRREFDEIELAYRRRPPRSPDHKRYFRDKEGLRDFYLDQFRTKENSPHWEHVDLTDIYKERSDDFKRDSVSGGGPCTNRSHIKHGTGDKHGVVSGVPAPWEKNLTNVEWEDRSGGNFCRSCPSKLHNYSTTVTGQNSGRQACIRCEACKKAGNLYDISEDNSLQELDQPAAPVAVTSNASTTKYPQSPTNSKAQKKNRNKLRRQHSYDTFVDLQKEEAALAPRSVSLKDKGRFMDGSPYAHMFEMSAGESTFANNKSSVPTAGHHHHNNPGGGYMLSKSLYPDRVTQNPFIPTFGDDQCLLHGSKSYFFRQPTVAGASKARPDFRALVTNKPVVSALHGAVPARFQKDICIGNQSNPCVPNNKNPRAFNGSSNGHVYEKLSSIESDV
row,Response Recovered (%),Compound
1,4.4,"O=C(Cn1ccc2scc(-c3ccc(F)c(Cl)c3)c2c1=O)N1CC2(COC2)C1 [Example 67, 3-(3-chloro-4-fluroophenyl)-5-(2-oxo-2-(2-oxa-6-azaspiro[3.3]heptan-6-yl)ethyl)thieno[3,2-c]pyridin-4(5H)-one]"
2,13,"O=C(Cn1ccc2scc(-c3ccc(Cl)c(Cl)c3)c2c1=O)N1CC2(COC2)C1 [Example 68, 3-(3,4-dichlorophenyl)-5-(2-oxo-2-(2-oxa-6-azaspiro[3.3]heptan-6-yl)ethyl)thieno[3,2-c]pyridin-4(5H)-one]"
3,16,"O=C(Cn1ccc2scc(-c3ccc(F)c(C(F)(F)F)c3)c2c1=O)N1CC2(COC2)C1 [Example 69, 3-(4-fluoro-3-(trifluoromethyl)phen-yl)-5-(2-oxo-2-(2-oxa-6-azaspiro[3.3]heptan-6-yl)ethyl)thieno[3,2-c]pyridin-4(5H)-one]"
4,64,"O=C(Cn1ccc2scc(-c3cnc(Cl)c(Cl)c3)c2c1=O)N1CC(F)(C2CC2)C1 [Example 70, 5-(2-(3-cyclopropyl-3-fluoroazetidin-1-yl)-2-oxoethyl)-3-(5,6-dichloropyridin-3-yl)thieno[3,2-c]pyridin-4(5H)-one]"
5,46,"O=C(Cn1ccc2scc(-c3ccc(F)c(Cl)c3)c2c1=O)N1CC2(CC2)C1 [Example 71, 3-(3-chloro-4-fluorophenyl)-5-(2-oxo-2-(5-azaspiro[2.3]hexan-5-yl)ethyl)thieno[3,2-c]pyridin-4(5H)-one]"
6,37,"O=C(Cn1ccc2scc(-c3ccc(F)c(C(F)(F)F)c3)c2c1=O)N1CC2C(C1)C2(F)F (centres unmarked) [Example 72, 5-(2-(6,6-difluoro-3-azabicyclo[3.1.0]hex-an-3-yl)-2-oxoethyl)-3-(4-fluoro-3-(trifluoromethyl)phen-yl)thieno[3,2-c]pyridin-4(5H)-one]"
7,9.8,"CC1(NC(=O)OC(C)(C)C)CN(C(=O)Cn2ccc3scc(-c4ccc(Cl)c(Cl)c4)c3c2=O)C1 [Example 73, tert-butyl (1-(2-(3-(3,4-dichlorophenyl)-4-oxothieno[3,2-c]pyridin-5(4H)-yl)acetyl)-3-methylazetidin-3-yl)carbamate]"
8,4.7,"CC1(NC(=O)OC(C)(C)C)CN(C(=O)Cn2ccc3scc(-c4ccc(F)c(Cl)c4)c3c2=O)C1 [Example 74, tert-butyl (1-(2-(3-(3-chloro-4-fluorophenyl)-4-oxothieno[3,2-c]pyridin-5(4H)-yl)acetyl)-3-methylazetidin-3-yl)carbamate]"
9,78,"CCC1(F)CN(C(=O)Cn2ccc3scc(-c4cnc(Cl)c(Cl)c4)c3c2=O)C1 [Example 75, 3-(5,6-dichloropyridin-3-yl)-5-(2-(3-ethyl-3-fluoroazetidin-1-yl)-2-oxoethyl)thieno[3,2-c]pyridin-4(5H)-one]"
10,77,"CC1(F)CN(C(=O)Cn2ccc3scc(-c4cnc(Cl)c(Cl)c4)c3c2=O)C1 [Example 76, 3-(5,6-dichloropyridin-3-yl)-5-(2-(3-fluoro-3-methylazetidin-1-yl)-2-oxoethyl)thieno[3,2-c]pyridin-4(5H)-one]"
11,−6.4,"CC1(NC(=O)OC(C)(C)C)CN(C(=O)Cn2ccc3scc(-c4ccc(F)c(C(F)(F)F)c4)c3c2=O)C1 [Example 77, tert-butyl (1-(2-(3-(4-fluoro-3-(trifluoromethyl)phen-yl)-4-oxothieno[3,2-c]pyridin-5(4H)-yl)acetyl)-3-methylazetidin-3-yl)carbamate]"
12,53,"O=C(Cn1ccc2scc(-c3ccc(Cl)c(Cl)c3)c2c1=O)N1CC2(CC2)C1 [Example 78, 3-(3,4-dichlorophenyl)-5-(2-oxo-2-(5-azaspiro[2.3]hexan-5-yl)ethyl)thieno[3,2-c]pyridin-4(5H)-one]"
13,18,"CC(C)(C)OC(=O)N1CCC12CN(C(=O)Cn1ccc3scc(-c4ccc(F)c(Cl)c4)c3c1=O)C2 [Example 79, tert-butyl 6-(2-(3-(3-chloro-4-fluorophenyl)-4-oxothieno[3,2-c]pyridin-5(4H)-yl)acetyl)-1,6-diazaspiro[3.3]heptane-1-carboxylate]"
14,64,"O=C(Cn1ccc2scc(-c3ccc(F)c(C(F)(F)F)c3)c2c1=O)N1CC2(CC2)C1 [Example 80, 3-(4-fluoro-3-(trifluoromethyl)phen-yl)-5-(2-oxo-2-(5-azaspiro[2.3]hexan-5-yl)ethyl)thieno[3,2-c]pyridin-4(5H)-one]"
15,140,"O=C(Cn1ccc2scc(-c3ccc(F)c(Cl)c3)c2c1=O)N1CC(F)(CF)C1 [Example 81, 3-(3-chloro-4-fluorophenyl)-5-(2-(3-fluoro-3-(fluoromethyl)azetidin-1-yl)-2-oxoethyl)thieno[3,2-c]pyridin-4(5H)-one]"
16,140,"O=C(Cn1ccc2scc(-c3ccc(Cl)c(Cl)c3)c2c1=O)N1CC(F)(CF)C1 [Example 82, 3-(3,4-dichlorophenyl)-5-(2-(3-fluoro-3-(fluoromethyl)azetidin-1-yl)-2-oxoethyl)thieno[3,2-c]pyridin-4(5H)-one]"

row,Response Recovered (%),Compound
1,140,"O=C(Cn1ccc2scc(-c3ccc(F)c(C(F)(F)F)c3)c2c1=O)N1CC(F)(CF)C1 [Example 83, 5-(2-(3-fluoro-3-(fluoromethyl)azetidin-1-yl)-2-oxoethyl)-3-(4-fluoro-3-(trifluoromethyl)phen-yl)thieno[3,2-c]pyridin-4(5H)-one]"
2,39,"Cc1cc(-c2csc3ccn(CC(=O)N4CC(C)(F)C4)c(=O)c23)cnc1Cl [Example 84, 3-(6-chloro-5-methylpyridin-3-yl)-5-(2-(3-fluoro-3-methylazetidin-1-yl)-2-oxoethyl)thieno[3,2-c]pyridin-4(5H)-one]"
3,16,"CCC1(F)CN(C(=O)Cn2ccc3scc(-c4cnc(Cl)c(C)c4)c3c2=O)C1 [Example 85, 3-(6-chloro-5-methylpyridin-3-yl)-5-(2-(3-ethyl-3-fluoroazetidin-1-yl)-2-oxoethyl)thieno[3,2-c]pyridin-4(5H)-one]"
4,17,"Cc1cc(-c2csc3ccn(CC(=O)N4CC(F)(CF)C4)c(=O)c23)cnc1Cl [Example 86, 3-(6-chloro-5-methylpyridin-3-yl)-5-(2-(3-fluoro-3-(fluoromethyl)azetidin-1-yl)-2-oxoethyl)thieno[3,2-c]pyridin-4(5H)-one]"
5,−4.2,"Cc1cc(-c2csc3ccn(CC(=O)N4CC(C)(F)C4)c(=O)c23)cnc1F [Example 87, 5-(2-(3-fluoro-3-methylazetidin-1-yl)-2-oxoethyl)-3-(6-fluoro-5-methylpyridin-3-yl)thieno[3,2-c]pyridin-4(5H)-one]"
6,20,"CCC1(F)CN(C(=O)Cn2ccc3scc(-c4cnc(F)c(C)c4)c3c2=O)C1 [Example 88, 5-(2-(3-ethyl-3-fluoroazetidin-1-yl)-2-oxoethyl)-3-(6-fluoro-5-methylpyridin-3-yl)thieno[3,2-c]pyridin-4(5H)-one]"
7,16,"Cc1cc(-c2csc3ccn(CC(=O)N4CC(F)(CF)C4)c(=O)c23)cnc1F [Example 89, 5-(2-(3-fluoro-3-(fluoromethyl)azetidin-1-yl)-2-oxoethyl)-3-(6-fluoro-5-methylpyridin-3-yl)thieno[3,2-c]pyridin-4(5H)-one]"
8,75,"Cc1ncc(-c2csc3ccn(CC(=O)N4CC(C)(F)C4)c(=O)c23)cc1Cl [Example 90, 3-(5-chloro-6-methylpyridin-3-yl)-5-(2-(3-fluoro-3-methylazetidin-1-yl)-2-oxoethyl)thieno[3,2-c]pyridin-4(5H)-one]"
9,74,"CCC1(F)CN(C(=O)Cn2ccc3scc(-c4cnc(C)c(Cl)c4)c3c2=O)C1 [Example 91, 3-(5-chloro-6-methylpyridin-3-yl)-5-(2-(3-ethyl-3-fluoroazetidin-1-yl)-2-oxoethyl)thieno[3,2-c]pyridin-4(5H)-one]"
10,70,"Cc1ncc(-c2csc3ccn(CC(=O)N4CC(F)(CF)C4)c(=O)c23)cc1Cl [Example 92, 3-(5-chloro-6-methylpyridin-3-yl)-5-(2-(3-fluoro-3-(fluoromethyl)azetidin-1-yl)-2-oxoethyl)thieno[3,2-c]pyridin-4(5H)-one]"
11,4.1,"CN(CC(F)(F)F)C(=O)Cn1ccc2scc(-c3ccc(F)c(Cl)c3)c2c1=O [Example 93, 2-(3-(3-chloro-4-fluorophenyl)-4-oxothieno[3,2-c]pyridin-5(4H)-yl)-N-methyl-N-(2,2,2-trifluoroethyl)acetamide]"
12,3.1,"CC1(N)CN(C(=O)Cn2ccc3scc(-c4ccc(Cl)c(Cl)c4)c3c2=O)C1 [Example 94, 5-(2-(3-amino-3-methylazetidin-1-yl)-2-oxoethyl)-3-(3,4-dichlorophenyl)thieno[3,2-c]pyridin-4(5H)-one]"
13,1,CC1(N)CN(C(=O)Cn2ccc3scc(-c4ccc(F)c(Cl)c4)c3c2=O)C1 [Example 95]
14,43,"CC1(N)CN(C(=O)Cn2ccc3scc(-c4ccc(F)c(C(F)(F)F)c4)c3c2=O)C1 [Example 96, 5-(2-(3-amino-3-methylazetidin-1-yl)-2-oxoethyl)-3-(4-fluoro-3-(trifluoromethyl)phenyl)thieno[3,2-c]pyridin-4(5H)-one]"
15,2.8,"O=C(Cn1ccc2scc(-c3ccc(F)c(Cl)c3)c2c1=O)N1CC2(CCN2)C1 [Example 97, 3-(3-chloro-4-fluorophenyl)-5-(2-oxo-2-(1,6-diazaspiro[3.3]heptan-6-yl)ethyl)thieno[3,2-c]pyridin-4(5H)-one 2,2,2-trifluoroacetate]"
16,40,"O=C(Cn1cc(Br)c2scc(-c3ccc(Cl)c(C(F)(F)F)c3)c2c1=O)N1CCCC1 [Example 98, 7-bromo-3-(4-chloro-3-(trifluoromethyl)phenyl)-5-(2-oxo-2-(pyrrolidin-1-yl)ethyl)thieno[3,2-c]pyridin-4(5H)-one]"
